Our source for the inhibition values is PMC4162403 (Angewandte Chemie (International ed. in English), 2010).

This assay addresses TNF-α (Homo sapiens, UniProt P01375). Put plainly: inhibition of TNFR-1 binding to TNF-α, side-by-side experiment. The settings on record: read-out: % inhibition at 10 μM.

TNF-α, sequence (P01375 77-233): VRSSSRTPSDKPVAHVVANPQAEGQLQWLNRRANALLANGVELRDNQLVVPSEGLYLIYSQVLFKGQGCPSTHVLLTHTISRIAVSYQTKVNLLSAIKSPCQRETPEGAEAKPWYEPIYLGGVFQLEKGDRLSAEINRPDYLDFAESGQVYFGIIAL

Broadly, the inhibition is the percentage by which the read-out fell short of the control. `Cc1cc2occ(CN(C)CCN(C)Cc3cn(-c4cccc(C(F)(F)F)c4)c4ccccc34)c(=O)c2cc1C` [SPD304]: the inhibition at 10 µM worked out at 34%.
